Results taken from patent US20260103679A1, “COMPOSITIONS COMPRISING REGULATORY T CELLS AND METHODS OF USING THE SAME” (Cellenkos, Inc., priority 2021, published 2026).

Test system: xenogeneic mouse graft versus host disease (GVHD) model
Details: in vivo
Method: FIG. 33 depicts a schematic for treatment of a xenogeneic mouse graft versus host disease (GVHD) model with a ruxolitinib and activated Treg cells regimen. PBMC=peripheral blood mononuclear cells.
A xenogeneic mouse graft versus host disease (GVHD) model was treated with a ruxolitinib and activated CB Treg cells regimen, as depicted in FIG. 33. NSG mice underwent sublethal irradiation on day −1 followed by injection of 1×10^7 donor peripheral blood (PB) mononuclear cells (MNCs) on day 0. Oral ruxolitinib at 1 mg daily was fed continuously to the mice in the presence or absence of 1×10^7 CB Treg cells, tagged with CellTrace™ Violet dye (ThermoFisher), administered on days +4, +7, +11, +18. Mice were followed every other day for weight, GVHD score and survival. Serial blood draws were performed to analyze for cell compartment and cytokine assays.

N#CC[C@H](C1CCCC1)n1cc(-c2ncnc3[nH]ccc23)cn1 [ruxolitinib]
CB Treg persistence: improved
